Measured values: the NIST ThermoML archive (doi:10.1021/je600554h)

Experiment: xn = mol fraction of the nth substance listed
Conditions: 100 kPa, Liquid; for viscosity: Capillary tube (Ostwald / Ubbelohde) method

COC(C)(C)C [2-methoxy-2-methylpropane] + CCCCCCCC
Conditions	mass density [kg/m3]	viscosity [mPa·s]
273.15 K, x1 = 0.1019	–	0.685
273.15 K, x1 = 0.1059	721.15	–
273.15 K, x1 = 0.2123	724.203	–
273.15 K, x1 = 0.2189	–	0.651
273.15 K, x1 = 0.3019	727.065	–
273.15 K, x1 = 0.3026	–	0.622
273.15 K, x1 = 0.4029	–	0.597
273.15 K, x1 = 0.4099	730.835	–
273.15 K, x1 = 0.4995	–	0.57
273.15 K, x1 = 0.5053	734.583	–
273.15 K, x1 = 0.6005	738.614	–
273.15 K, x1 = 0.6099	–	0.549
273.15 K, x1 = 0.6934	742.992	–
273.15 K, x1 = 0.7072	–	0.525
273.15 K, x1 = 0.7967	748.318	–
273.15 K, x1 = 0.7981	–	0.494
273.15 K, x1 = 0.8941	–	0.472
273.15 K, x1 = 0.8975	754.329	–
278.15 K, x1 = 0.1019	–	0.638
278.15 K, x1 = 0.1059	717.106	–
278.15 K, x1 = 0.2123	720.082	–
278.15 K, x1 = 0.2189	–	0.607
278.15 K, x1 = 0.3019	722.866	–
278.15 K, x1 = 0.3026	–	0.583
278.15 K, x1 = 0.4029	–	0.559
278.15 K, x1 = 0.4099	726.533	–
278.15 K, x1 = 0.4995	–	0.534
278.15 K, x1 = 0.5053	730.183	–
278.15 K, x1 = 0.6005	734.106	–
278.15 K, x1 = 0.6099	–	0.514
278.15 K, x1 = 0.6934	738.371	–
278.15 K, x1 = 0.7072	–	0.492
278.15 K, x1 = 0.7967	743.56	–
278.15 K, x1 = 0.7981	–	0.462
278.15 K, x1 = 0.8941	–	0.442
278.15 K, x1 = 0.8975	749.42	–
283.15 K, x1 = 0.1019	–	0.597
283.15 K, x1 = 0.1059	713.046	–
283.15 K, x1 = 0.2123	715.938	–
283.15 K, x1 = 0.2189	–	0.568
283.15 K, x1 = 0.3019	718.644	–
283.15 K, x1 = 0.3026	–	0.545
283.15 K, x1 = 0.4029	–	0.523
283.15 K, x1 = 0.4099	722.208	–
283.15 K, x1 = 0.4995	–	0.501
283.15 K, x1 = 0.5053	725.756	–
283.15 K, x1 = 0.6005	729.573	–
283.15 K, x1 = 0.6099	–	0.483
283.15 K, x1 = 0.6934	733.719	–
283.15 K, x1 = 0.7072	–	0.462
283.15 K, x1 = 0.7967	738.766	–
283.15 K, x1 = 0.7981	–	0.435
283.15 K, x1 = 0.8941	–	0.417
283.15 K, x1 = 0.8975	744.471	–
288.15 K, x1 = 0.1019	–	0.559
288.15 K, x1 = 0.1059	708.972	–
288.15 K, x1 = 0.2123	711.779	–
288.15 K, x1 = 0.2189	–	0.533
288.15 K, x1 = 0.3019	714.403	–
288.15 K, x1 = 0.3026	–	0.514
288.15 K, x1 = 0.4029	–	0.492
288.15 K, x1 = 0.4099	717.859	–
288.15 K, x1 = 0.4995	–	0.471
288.15 K, x1 = 0.5053	721.306	–
288.15 K, x1 = 0.6005	725.009	–
288.15 K, x1 = 0.6099	–	0.454
288.15 K, x1 = 0.6934	729.044	–
288.15 K, x1 = 0.7072	–	0.435
288.15 K, x1 = 0.7967	733.942	–
288.15 K, x1 = 0.7981	–	0.41
288.15 K, x1 = 0.8941	–	0.393
288.15 K, x1 = 0.8975	739.489	–
293.15 K, x1 = 0.1019	–	0.525
293.15 K, x1 = 0.1059	704.884	–
293.15 K, x1 = 0.2123	707.601	–
293.15 K, x1 = 0.2189	–	0.501
293.15 K, x1 = 0.3019	710.139	–
293.15 K, x1 = 0.3026	–	0.483
293.15 K, x1 = 0.4029	–	0.464
293.15 K, x1 = 0.4099	713.488	–
293.15 K, x1 = 0.4995	–	0.445
293.15 K, x1 = 0.5053	716.833	–
293.15 K, x1 = 0.6005	720.419	–
293.15 K, x1 = 0.6099	–	0.428
293.15 K, x1 = 0.6934	724.332	–
293.15 K, x1 = 0.7072	–	0.411
293.15 K, x1 = 0.7967	729.066	–
293.15 K, x1 = 0.7981	–	0.388
293.15 K, x1 = 0.8941	–	0.372
293.15 K, x1 = 0.8975	734.467	–
298.15 K, x1 = 0.1019	–	0.495
298.15 K, x1 = 0.1059	700.768	–
298.15 K, x1 = 0.2123	703.393	–
298.15 K, x1 = 0.2189	–	0.473
298.15 K, x1 = 0.3019	705.856	–
298.15 K, x1 = 0.3026	–	0.455
298.15 K, x1 = 0.4029	–	0.439
298.15 K, x1 = 0.4099	709.092	–
298.15 K, x1 = 0.4995	–	0.42
298.15 K, x1 = 0.5053	712.324	–
298.15 K, x1 = 0.6005	715.799	–
298.15 K, x1 = 0.6099	–	0.405
298.15 K, x1 = 0.6934	719.586	–
298.15 K, x1 = 0.7072	–	0.388
298.15 K, x1 = 0.7967	724.172	–
298.15 K, x1 = 0.7981	–	0.367
